Assay results as given in US20110301245A1, “(R)-2-(3,4-DIMETHOXYPHENOL)-2-ISOPROPYL-6-AZAHEPTANITRIL FORMULAITONS, ANDTHE USE OF SUCH FORMULATIONS IN THE TREATMENT OF CONDITIONS MEDIATED BY THE SEROTONIN TRANSPORTER” (AGI THERAPEUTICS, PLC, priority 2010, published 2011).
Several values for one entry are separate records, joined by “and”; a condition that tells them apart may be missing. Identical values can stand only once. Like-named read-outs stand apart in the source and are kept apart here.

Tests used:
[1] = tested on: male wistar rats with Monocrotaline-induced PAH; test: Inhibition of PAH development, monocrotaline-induced pulmonary arterial hypertension; format: in vivo, rat; conditions: Mct 60 mg/kg sc, 5 mg/kg IP daily for 21 days
Protocol: Experimental pulmonary arterial hypertension (PAH) was induced in male wistar rats (Charles River Laboratories) weighing between 250 and 300 g by subcutaneous injection of 60 mg/kg Monocrotaline (Met) on Day 1. The Mct (Sigma Aldrich) was dissolved in 1N HCl at a concentration of 300 mg/ml as per M. Rey et al., Current Protocols in Pharmacology, 5.56.1-5.56.11, September 2009, which document is incorporated by reference herein in its entirety. Mct was then neutralized by adding 1N NaOH and diluted with sterile distilled water to a final concentration of 20 mg/ml. An injection volume of 3 ml/kg was used to achieve the 60 mg/kg dose.
A total of 44 rats were injected as follows: 15 rats were injected subcutaneously with Mct (untreated PAH controls), 15 rats were injected subcutaneously with Mct followed by daily IP injection with 5 mg/kg (R)-2-(3,4-dimethoxyphenol)-2-isopropyl-6-azaheptanitril for 21 days (R-D617 treated group), and 14 rats were injected subcutaneously with neutralized solvent having no Mct (non-PAH controls (sham)).
All animals were then housed (allowed food and water ad lib). The animals were anaesthetized 21 days after injection, and pulmonary arterial pressure was measured and expressed as mean pulmonary arterial pressure (mPAP mmHg). A terminal sample was also obtained and used to obtain terminal drug concentrations. […]

5-HT transporter (h) = target: T1, 5-HT transporter (h) (Homo sapiens, UniProt P31645); test: 5-HT transporter (h) antagonist radioligand binding assay, human recombinant CHO cells, [3H]imipramine
T1 construct: expressed in transfected cells; host or cells: CHO cells
Source text: For its discussion of the assay method, Tatsumi et al. is incorporated herein by reference in its entirety.
The specific ligand binding to the receptors is defined as the difference between the total binding and the nonspecific binding determined in the presence of an excess of unlabelled ligand.
The results are expressed as a percent of control specific binding ((measured specific binding/control specific binding)×100) and as a percent inhibition of control specific binding (100−((measured specific binding/control specific binding)×100)) obtained in the presence of (R)-2-(3,4-dimethoxyphenol)-2-isopropyl-6-azaheptanitril.
(§1) The IC50 values (concentration causing a half-maximal inhibition of control specific binding) and Hill coefficients (nH) were determined by non-linear regression analysis of the competition curves generated with mean replicate values using Hill equation curve fitting (Y=D+[(A−D)/(1+(C/C50)^nH)], where Y=specific binding, D=minimum specific binding, A=maximum specific binding, C=compound concentration, C50=IC50, and nH=slope factor).
The inhibition constants (Ki) were calculated using the Cheng Prusoff equation (Ki=IC50/(1+(L/KD)), where L=concentration of radioligand in the assay, and KD=affinity of the radioligand for the receptor).

[2] = tested on: other receptors tested, including calcium channels; test: Single high concentration test on other receptors (data not included); format: binding; conditions: single high concentration 1×10^−5M
[3] = Terminal plasma drug concentrations by HPLC in the PAH study; format: in vivo; conditions: rat, 5 mg/kg IP daily for 21 days
Protocol: All animals were then housed (allowed food and water ad lib). The animals were anaesthetized 21 days after injection, and pulmonary arterial pressure was measured and expressed as mean pulmonary arterial pressure (mPAP mmHg). A terminal sample was also obtained and used to obtain terminal drug concentrations. Following exsanguination, cardiac tissues were excised and used to assess the wet weight of the right cardiac ventricle.

[4] = target: T2, 5-HT uptake (rat brain synaptosomes) (Rattus norvegicus, UniProt P31652); test: In vitro 5-HT uptake assay using rat brain synaptosomes; format: biochemical; conditions: for % of Control Values, 1st / % of Control Values, 2nd / % of Control Values, Mean: Table 2-2
T2 construct: from tissue; host or cells: rat brain synaptosomes
Protocol: Briefly, the uptake assay was performed using rat brain synaptosomes according to the method generally described in Perovic and Muller, Arzneim-Forsch. […] For its disclosure of the above-noted assay, Perovic and Muller is incorporated herein by reference in its entirety.
The results are expressed as a percent of control specific activity ((measured specific activity/control specific activity)×100) obtained in the presence of (R)-2-(3,4-dimethoxyphenol)-2-isopropyl-6-azaheptanitril.
as §1, with “activity)” for “binding)”, “inhibition” for “competition”, “activity,” for “binding,”, “C50=IC50” for “C50=IC50,”

[5] = % of the potency of verapamil; cited from earlier work
HERG = HERG (Homo sapiens, UniProt Q12809); conditions: prior non-clinical studies; cited from earlier work
CYP = conditions: prior non-clinical studies; cited from earlier work
p-glycoprotein = p-glycoprotein (Homo sapiens, UniProt P08183); conditions: prior non-clinical studies; cited from earlier work
p-glycoprotein, sequence (P08183 whole entry): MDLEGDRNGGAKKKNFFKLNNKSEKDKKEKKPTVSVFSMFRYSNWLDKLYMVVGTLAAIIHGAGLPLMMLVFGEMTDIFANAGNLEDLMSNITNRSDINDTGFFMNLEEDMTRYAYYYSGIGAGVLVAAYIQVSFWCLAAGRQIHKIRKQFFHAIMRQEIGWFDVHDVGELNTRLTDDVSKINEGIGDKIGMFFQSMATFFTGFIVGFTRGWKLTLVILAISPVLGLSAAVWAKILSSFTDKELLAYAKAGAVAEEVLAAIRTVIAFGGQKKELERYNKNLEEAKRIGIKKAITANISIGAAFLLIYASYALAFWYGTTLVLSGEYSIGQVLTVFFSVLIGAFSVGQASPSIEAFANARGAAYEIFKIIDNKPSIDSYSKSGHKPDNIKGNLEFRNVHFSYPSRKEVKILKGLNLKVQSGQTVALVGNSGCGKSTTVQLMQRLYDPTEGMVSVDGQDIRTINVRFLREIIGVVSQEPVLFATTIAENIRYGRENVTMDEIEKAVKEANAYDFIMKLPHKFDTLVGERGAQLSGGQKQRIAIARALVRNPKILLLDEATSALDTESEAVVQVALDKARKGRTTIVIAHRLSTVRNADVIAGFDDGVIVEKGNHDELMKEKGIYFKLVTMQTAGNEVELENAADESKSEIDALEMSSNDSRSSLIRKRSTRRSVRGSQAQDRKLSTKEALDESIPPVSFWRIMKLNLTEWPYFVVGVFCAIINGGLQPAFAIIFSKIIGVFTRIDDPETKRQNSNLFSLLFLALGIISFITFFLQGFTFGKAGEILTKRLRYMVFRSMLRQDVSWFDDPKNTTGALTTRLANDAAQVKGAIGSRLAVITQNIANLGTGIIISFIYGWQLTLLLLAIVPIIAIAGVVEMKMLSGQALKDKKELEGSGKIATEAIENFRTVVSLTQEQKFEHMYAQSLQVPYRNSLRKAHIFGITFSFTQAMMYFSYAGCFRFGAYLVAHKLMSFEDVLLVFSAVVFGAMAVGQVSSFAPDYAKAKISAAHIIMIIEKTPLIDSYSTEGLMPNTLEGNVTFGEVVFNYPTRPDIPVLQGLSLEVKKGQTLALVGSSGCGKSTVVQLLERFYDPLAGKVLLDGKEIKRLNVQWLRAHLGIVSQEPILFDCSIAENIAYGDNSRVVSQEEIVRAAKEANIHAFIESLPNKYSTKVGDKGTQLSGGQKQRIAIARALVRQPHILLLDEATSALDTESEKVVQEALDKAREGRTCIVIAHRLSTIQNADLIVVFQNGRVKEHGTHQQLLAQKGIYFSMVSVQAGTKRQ

T1 sequence (P31645 whole entry): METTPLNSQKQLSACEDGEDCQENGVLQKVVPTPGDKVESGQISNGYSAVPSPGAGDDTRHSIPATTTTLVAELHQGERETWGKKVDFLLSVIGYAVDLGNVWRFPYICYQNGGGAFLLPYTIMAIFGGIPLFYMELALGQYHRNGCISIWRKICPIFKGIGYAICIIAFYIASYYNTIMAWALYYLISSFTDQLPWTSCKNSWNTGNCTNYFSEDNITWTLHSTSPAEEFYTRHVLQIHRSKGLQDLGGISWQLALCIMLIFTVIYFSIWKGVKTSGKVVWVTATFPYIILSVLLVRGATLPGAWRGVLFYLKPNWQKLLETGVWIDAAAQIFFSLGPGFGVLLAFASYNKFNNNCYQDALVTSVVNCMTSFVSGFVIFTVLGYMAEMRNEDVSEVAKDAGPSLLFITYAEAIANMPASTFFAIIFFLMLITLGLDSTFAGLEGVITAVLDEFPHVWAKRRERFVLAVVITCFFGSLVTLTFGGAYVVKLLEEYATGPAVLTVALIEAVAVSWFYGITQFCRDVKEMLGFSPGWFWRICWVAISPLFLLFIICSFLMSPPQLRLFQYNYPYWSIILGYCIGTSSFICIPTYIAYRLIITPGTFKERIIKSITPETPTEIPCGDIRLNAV
T2 sequence (P31652 whole entry): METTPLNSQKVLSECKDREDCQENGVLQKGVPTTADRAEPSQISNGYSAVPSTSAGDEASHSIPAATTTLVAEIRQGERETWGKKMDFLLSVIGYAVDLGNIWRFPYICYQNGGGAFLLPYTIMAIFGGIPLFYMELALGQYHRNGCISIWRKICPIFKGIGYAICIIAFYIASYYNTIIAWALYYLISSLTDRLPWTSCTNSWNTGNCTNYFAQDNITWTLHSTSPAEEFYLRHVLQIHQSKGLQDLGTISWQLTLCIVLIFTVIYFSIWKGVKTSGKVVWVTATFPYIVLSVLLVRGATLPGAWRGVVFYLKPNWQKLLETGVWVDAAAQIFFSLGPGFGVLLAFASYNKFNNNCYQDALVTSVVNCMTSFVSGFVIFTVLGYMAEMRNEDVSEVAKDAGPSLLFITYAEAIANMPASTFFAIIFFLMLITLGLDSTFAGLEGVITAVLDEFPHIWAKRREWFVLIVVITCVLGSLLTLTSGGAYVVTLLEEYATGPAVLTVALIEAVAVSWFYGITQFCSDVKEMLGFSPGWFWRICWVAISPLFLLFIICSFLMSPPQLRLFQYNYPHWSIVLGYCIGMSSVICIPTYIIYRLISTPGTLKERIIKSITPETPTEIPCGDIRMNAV
HERG, sequence (Q12809 whole entry): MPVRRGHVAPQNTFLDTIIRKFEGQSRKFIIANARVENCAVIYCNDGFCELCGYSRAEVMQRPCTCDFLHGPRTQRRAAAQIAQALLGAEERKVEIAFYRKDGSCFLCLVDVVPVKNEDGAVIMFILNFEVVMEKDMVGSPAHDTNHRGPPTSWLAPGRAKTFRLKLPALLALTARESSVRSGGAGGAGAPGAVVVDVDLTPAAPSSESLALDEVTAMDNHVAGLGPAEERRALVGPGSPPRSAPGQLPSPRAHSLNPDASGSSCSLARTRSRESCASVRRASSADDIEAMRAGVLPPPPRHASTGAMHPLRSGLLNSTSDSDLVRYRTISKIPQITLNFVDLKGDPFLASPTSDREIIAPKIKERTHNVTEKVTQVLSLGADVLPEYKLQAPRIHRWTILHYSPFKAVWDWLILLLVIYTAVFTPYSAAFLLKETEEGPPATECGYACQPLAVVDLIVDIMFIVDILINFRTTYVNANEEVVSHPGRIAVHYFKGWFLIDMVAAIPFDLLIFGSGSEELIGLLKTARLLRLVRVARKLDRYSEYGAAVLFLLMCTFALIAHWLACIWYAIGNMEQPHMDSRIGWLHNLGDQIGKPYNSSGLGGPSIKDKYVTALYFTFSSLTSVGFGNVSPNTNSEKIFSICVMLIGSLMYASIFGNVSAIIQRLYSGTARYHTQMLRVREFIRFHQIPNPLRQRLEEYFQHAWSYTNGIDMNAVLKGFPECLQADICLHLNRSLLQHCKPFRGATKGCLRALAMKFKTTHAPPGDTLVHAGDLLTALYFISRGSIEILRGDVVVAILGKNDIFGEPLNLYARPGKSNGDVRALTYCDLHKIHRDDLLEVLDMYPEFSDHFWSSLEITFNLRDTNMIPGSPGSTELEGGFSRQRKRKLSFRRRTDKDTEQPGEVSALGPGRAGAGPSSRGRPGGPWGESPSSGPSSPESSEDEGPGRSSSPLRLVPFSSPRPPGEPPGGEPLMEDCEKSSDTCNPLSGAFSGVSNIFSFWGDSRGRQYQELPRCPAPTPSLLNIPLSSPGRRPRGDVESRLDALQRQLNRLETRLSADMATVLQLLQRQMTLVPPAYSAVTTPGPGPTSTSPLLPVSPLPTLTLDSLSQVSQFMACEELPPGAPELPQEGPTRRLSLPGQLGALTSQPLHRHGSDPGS

Compound: CNCCC[C@](C#N)(c1ccc(OC)c(OC)c1)C(C)C [(R)-2-(3,4-dimethoxyphenol)-2-isopropyl-6-azaheptanitril]
- mPAP (Mean +/− SEM) ([1]; measured 21 days after injection, untreated PAH control 36.0, sham 14.7): 30.0 +/− 2.5 mmHg
- Right Ventricle Weight (Mean +/− SEM) ([1]; wet weight, untreated PAH control 317.9, sham 167.4): 288.7 +/− 13.4
- % Inhibition of Control Specific Binding (5-HT transporter (h); Table 1-1, test concentration 1.0E−05 M): 100%
- % of Control Specific Binding, 1st (5-HT transporter (h); Table 1-2, 1.0E−05 M): −0.6%
- % of Control Specific Binding, 2nd (5-HT transporter (h); Table 1-2, 1.0E−05 M): 0.8%
- % of Control Specific Binding, Mean (5-HT transporter (h); Table 1-2, 1.0E−05 M): 0.1%
- nH (Hill coefficient) (5-HT transporter (h); Table 1-4): 1.0
- Ki (5-HT transporter (h); Table 1-4, Cheng Prusoff): 22 nM
- % of Control Specific Binding, 1st (5-HT transporter (h); Table 1-5, 1.0E−05 M): 0.5%
- % of Control Specific Binding, 2nd (5-HT transporter (h); Table 1-5, 1.0E−05 M): 0.2%
- % of Control Specific Binding, Mean (5-HT transporter (h); Table 1-5, 1.0E−05 M): 0.3%
- % of Control Specific Binding, 1st (5-HT transporter (h); Table 1-5, 1.0E−06 M): 5.9%
- % of Control Specific Binding, 2nd (5-HT transporter (h); Table 1-5, 1.0E−06 M): 3.7%
- % of Control Specific Binding, Mean (5-HT transporter (h); Table 1-5, 1.0E−06 M): 4.8%
- % of Control Specific Binding, 1st (5-HT transporter (h); Table 1-5, 1.0E−07 M): 36.5%
- % of Control Specific Binding, 2nd (5-HT transporter (h); Table 1-5, 1.0E−07 M): 32.5%
- % of Control Specific Binding, Mean (5-HT transporter (h); Table 1-5, 1.0E−07 M): 34.5%
- % of Control Specific Binding, 1st (5-HT transporter (h); Table 1-5, 1.0E−08 M): 83.3%
- % of Control Specific Binding, 2nd (5-HT transporter (h); Table 1-5, 1.0E−08 M): 84.8%
- % of Control Specific Binding, Mean (5-HT transporter (h); Table 1-5, 1.0E−08 M): 84.0%
- % of Control Specific Binding, 1st (5-HT transporter (h); Table 1-5, 3.0E−07 M): 15.3%
- % of Control Specific Binding, 2nd (5-HT transporter (h); Table 1-5, 3.0E−07 M): 13.1%
- % of Control Specific Binding, Mean (5-HT transporter (h); Table 1-5, 3.0E−07 M): 14.2%
- % of Control Specific Binding, 1st (5-HT transporter (h); Table 1-5, 3.0E−08 M): 66.6%
- % of Control Specific Binding, 2nd (5-HT transporter (h); Table 1-5, 3.0E−08 M): 58.0%
- % of Control Specific Binding, Mean (5-HT transporter (h); Table 1-5, 3.0E−08 M): 62.3%
- % of Control Specific Binding, 1st (5-HT transporter (h); Table 1-5, 3.0E−09 M): 101.5%
- % of Control Specific Binding, 2nd (5-HT transporter (h); Table 1-5, 3.0E−09 M): 88.4%
- % of Control Specific Binding, Mean (5-HT transporter (h); Table 1-5, 3.0E−09 M): 94.9%
- % of Control Specific Binding, 1st (5-HT transporter (h); Table 1-5, 3.0E−10 M): 104.1%
- % of Control Specific Binding, 2nd (5-HT transporter (h); Table 1-5, 3.0E−10 M): 102.0%
- % of Control Specific Binding, Mean (5-HT transporter (h); Table 1-5, 3.0E−10 M): 103.1%
- IC50 (5-HT transporter (h); read-out: IC50 for inhibition of binding at the serotonin transporter): 47 nM
- inhibition of the serotonin transporter (5-HT transporter (h); single high concentration 1×10^−5M): 100%
- inhibition at the majority of the other receptors tested [2]: < 75%
- mean terminal plasma concentration of (R)-2-(3,4-dimethoxyphenol)-2-isopropyl-6-azaheptanitril ([3]; R-D617 treated group): 18.5 ng/mL
- terminal plasma concentration of R-verapamil after R-D617 treatment ([3]; lower limit of quantification 1 ng/ml): < 1 ng/mL
- R-verapamil measured in terminal plasma of the R-D617 treated group ([3]; result in words): no quantifiable R-verapamil
- IC50 ([4]; Table 2-1, 5-HT uptake): 240 nM
- % of Control Values, 1st ([4]; 1.0E−05 M): 1.0%
- % of Control Values, 2nd ([4]; 1.0E−05 M): 5.2%
- % of Control Values, Mean ([4]; 1.0E−05 M): 3.1%
- % of Control Values, 1st ([4]; 1.0E−06 M): 22.1%
- % of Control Values, 2nd ([4]; 1.0E−06 M): 21.1%
- % of Control Values, Mean ([4]; 1.0E−06 M): 21.6%
- % of Control Values, 1st ([4]; 1.0E−07 M): 79.8%
- % of Control Values, 2nd ([4]; 1.0E−07 M): 81.9%
- % of Control Values, Mean ([4]; 1.0E−07 M): 80.8%
- % of Control Values, 1st ([4]; 1.0E−08 M): 101.7%
- % of Control Values, 2nd ([4]; 1.0E−08 M): 94.0%
- % of Control Values, Mean ([4]; 1.0E−08 M): 97.9%
- % of Control Values, 1st ([4]; 3.0E−07 M): 47.8%
- % of Control Values, 2nd ([4]; 3.0E−07 M): 44.9%
- % of Control Values, Mean ([4]; 3.0E−07 M): 46.3%
- % of Control Values, 1st ([4]; 3.0E−08 M): 108.1%
- % of Control Values, 2nd ([4]; 3.0E−08 M): 82.8%
- % of Control Values, Mean ([4]; 3.0E−08 M): 95.4%
- % of Control Values, 1st ([4]; 3.0E−09 M): 100.2%
- % of Control Values, 2nd ([4]; 3.0E−09 M): 113.4%
- % of Control Values, Mean ([4]; 3.0E−09 M): 106.8%
- % of Control Values, 1st ([4]; 3.0E−10 M): 113.5%
- % of Control Values, 2nd ([4]; 3.0E−10 M): 113.3%
- % of Control Values, Mean ([4]; 3.0E−10 M): 113.4%

Compound: CNCCCC(C#N)(c1ccc(OC)c(OC)c1)C(C)C [D-617, 2-(3,4-dimethoxyphenol)-2-isopropyl-6-azaheptanitril]
- cardiovascular potency compared with verapamil [5]: 2.6%
- block of HERG-induced currents (HERG): does not block
- CYP-mediated metabolism: substrate / inhibitor (CYP): substrate for but not a potent inhibitor of
- p-glycoprotein transport: substrate / inhibitor (p-glycoprotein): substrate for, but not an inhibitor of

Compound: CN(C)CCCN1c2ccccc2CCc2ccccc21 [imipramine, reference compound]
- nH (Hill coefficient) (5-HT transporter (h)): 0.9 and 1.2

Compound: COc1ccc(CCNCCCC(C#N)(c2ccc(OC)c(OC)c2)C(C)C)cc1OC (stereo not drawn) [nor-verapamil]
- cardiovascular potency compared with verapamil [5]: 21.9%
